Results from PubChem BioAssay (NCI).
Several values for one entry are separate records, joined by “and”; a condition that tells them apart may be missing. Equal entries are not always repeated.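 Values below derive from 48-hour exposures of cells grown in 96-well plates, with endpoints linearly interpolated between the two concentrations bracketing the appropriate inhibition level. The concentration for 50% growth inhibition is given as GI50. At the TGI there is no net growth.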

Key:
Experiment in all cases: NCI tumour cell line growth inhibition, 48 h
P388 leukemia = tested on: P388 leukemia
P388/ADR leukemia = tested on: P388/ADR leukemia
DLD-1 colon = tested on: DLD-1 colon
SN12K1 renal = tested on: SN12K1 renal
SNB-78 CNS = tested on: SNB-78 CNS
HOP-18 NSCLC = tested on: HOP-18 NSCLC
XF 498 CNS = tested on: XF 498 CNS
LXFL 529 NSCLC = tested on: LXFL 529 NSCLC

Structure (SMILES) | TGI (P388 leukemia) | GI50 (P388/ADR leukemia) | TGI (P388/ADR leukemia) | TGI (DLD-1 colon) | TGI (SN12K1 renal) | GI50 (SNB-78 CNS) | TGI (SNB-78 CNS) | GI50 (HOP-18 NSCLC) | TGI (HOP-18 NSCLC) | TGI (XF 498 CNS) | TGI (LXFL 529 NSCLC)
[Cl][Pt+2][Cl].[NH-]C1CCCCC1[NH-] (stereo not drawn) | 6.91 µM and 7.39 µM and 2.14 µM | 4.69 µM and 2.22 µM and 0.629 µM | 98.9 µM and > 100 µM and > 52.4 µM | > 100 µM | > 100 µM | 29 µM and 30 µM and 11.5 µM | > 100 µM | 25.6 µM and > 100 µM and 28.4 µM | > 100 µM |  | 
Cc1ccc(C(C)(C)C[P+](C)(c2ccccc2)c2ccccc2)cc1 | 12.3 µM |  | > 100 µM | > 100 µM | > 90.7 µM |  | 88.1 µM |  | > 47.8 µM | 12.9 µM | 
CC(=O)Nc1ccc(C(=O)NN2C(=O)C(Cl)C2c2ccc([N+](=O)[O-])cc2)cc1 (stereo not drawn) |  |  |  |  |  |  | > 100 µM |  |  | > 100 µM | > 100 µM
COc1ccc(NC(=O)C(=O)Cc2nc3ccc([N+](=O)[O-])cc3[nH]c2=O)c(OC)c1 |  |  |  | > 100 µM |  |  |  |  | > 100 µM |  | > 100 µM
Cc1ccccc1-n1c(C)nc2c1C(=O)c1ccccc1C2=O |  |  |  |  |  |  | > 100 µM |  |  |  | 
CC12N=NN(c3ccc([N+](=O)[O-])cc3)C1(O)c1ccccc1C2=O (stereo not drawn) |  |  |  |  |  |  |  |  |  | > 100 µM | > 100 µM
OCC1OC(n2cnc3cncnc32)C(O)C1O (stereo not drawn) | 1.59 µM |  | 1.46 µM | 1.82 µM | 3.49 µM |  | 39.1 µM |  | 8.15 µM |  | 
CC(C)=CCC/C(C)=C/CC/C(C)=C/Cc1c(O)c2ccccc2oc1=O |  |  |  | > 100 µM |  |  | > 100 µM |  | > 100 µM |  | > 100 µM
COC(=O)C1CCC(=O)N1C(=O)Cc1ccc(OC)cc1 (stereo not drawn) |  |  |  |  |  |  | > 100 µM |  |  | > 100 µM | > 100 µM
